Results published in PMC9781117, “New 5-Aryl-1,3,4-Thiadiazole-Based Anticancer Agents: Design, Synthesis, In Vitro Biological Evaluation and In Vivo Radioactive Tracing Studies” (Pharmaceuticals, 2022).
Converted amounts (≈) assume the structure as drawn.

Assays:
lung A549 cancer cells = test system: lung A549 cancer cells; set-up: method as in PMID 31313595; conditions: cited from earlier work
[1] = test system: cervical HeLa cancer cells; set-up: method as in PMID 31313595; conditions: cited from earlier work
MCF-7 cells [2] = assay: Cell cycle analysis by flow cytometry (PI), MCF-7; assay type: cell-based, human; conditions: MCF-7, IC50 concentration, 48 h, vs control, p < 0.05
Method: The cell cycle is made up of several intricately linked processes that enable the cell to develop and multiply. In cancer, the genetic and epigenetic abnormalities in the cell cycle-related genes result in an unchecked proliferation of mutated cells and alteration of cell cycle progression. For further investigation of the inhibitory effects of 4e and 4i compounds on the proliferation of HepG2 and MCF-7 cells, respectively, we examined the cell cycle distribution and DNA content after 48 h of the treatment. […] Consequently, the arrest in the G2/M phase mediates apoptosis via a mitochondrial apoptotic pathway.
Immediately after incubation, trypsinization was used to collect the cells, which were then washed twice with ice-cold PBS before being fixed in 70% (v/v) ethanol at […], re-suspended with 0.1 mg/mL RNase, stained with […] propidium iodide (PI), and incubated for 1 h. The DNA contents of the cells were then analyzed by flow cytometry using an FL2 (λex/em 493/636 nm) signal detector (Abcam, UK, ab139418).

[3] = test system: Bax/Bcl-2 ratio in MCF-7 cells; assay: ELISA Bax/Bcl-2 ratio, MCF-7; assay type: cell-based, human; conditions: MCF-7, IC50, 48 h, compared to control and 5-FU treated cells
Description: (§1) The overexpression of antiapoptotic proteins, such as Bcl-2, and the underexpression of proapoptotic proteins, such as Bax, are two common ways that the apoptotic pathway is suppressed in cancer. […] Therefore, a rise in Bax expression and a decrease in Bcl-2 can trigger the apoptotic process and eradicate cancer cells. […] This in turn activates the intrinsic pathway of apoptosis; thus, we next examined their effect on caspase 9 levels. Caspases (cysteine aspartyl-specific proteases), a class of cysteine proteins that cleave target proteins, play a role in executing apoptosis. […] Moreover, we evaluated the effect of the two compounds on the vascular endothelial growth factor VEGF expression. VEGF is one of the pro-angiogenic proteins; upon binding to VEGF receptors in the endothelial cells, it activates phosphorylation, causing increased angiogenesis and resulting in abnormal vasculature in the tumor tissue.
(§2) The protein levels of Bax, Bcl2, caspase 9, and VGEF were estimated using an ELISA assay. […] Cells from each group were scraped off and washed with PBS and then cell pellets were collected from each flask. […] The supernatants were then used for ELISA assays in accordance with the manufacturer’s instructions for the ELISA kits (Sunlong Biotech, China), and absorbance and calculations were carried out using an ELISA reader (FLUOstar Omega, BMG, Labtech, Germany).

MCF-7 cells [4] = assay: AO/EB fluorescent stain, apoptotic and necrotic cells, MCF-7; assay type: cell-based, human; conditions: MCF-7, IC50 concentration, 48 h, vs untreated control cells
Method: Morphologically, there are three different modes of cell death: apoptosis, autophagy, and necrosis (types I, II, and III, respectively).
Fluorescence labeling with acridine orange/ethidium bromide (AO/EB) was used to determine the ratio between apoptosis and necrosis to evaluate the mode of cell death. HepG2 and MCF-7 cells were seeded in six-well plates with DMEM media supplemented with 10% FBS and allowed to settle overnight at 37 °C with 5% CO2 in a humidified incubator. […] 5-FU was used as a positive standard for both cell lines. After incubation, cells were collected by trypsinization and stained using a dye solution of AO and EB in PBS (1:1) for 20 min. The cells were examined using fluorescence microscopy. Each sample had at least 500 counted cells, and the percentage of apoptotic or necrotic cells was determined by […] the number of apoptotic or necrotic cells by the total number of cells counted by 100. The experiment was performed three times in triplicate.

caspase 9 in MCF-7 cells = assay: ELISA caspase 9 level, MCF-7; assay type: cell-based, human; conditions: MCF-7, IC50, 48 h
Description: as §1, §2

[5] = test system: normal mammalian Vero cells; assay: Cytotoxicity against normal Vero cells; assay type: cell-based; conditions: Chlorocebus sabaeus
[6] = test system: MCF-7 breast adenocarcinoma cells; assay: MTT cytotoxicity assay, MCF-7; assay type: cell-based, human
Method: (§3) The in vitro cytotoxicity of the synthesized 1,3,4-thiadiazole derivatives against breast adenocarcinoma cells (MCF-7) and human hepatocellular carcinoma (HepG2) cell lines were evaluated by the MTT assay, using 5-Fluorouracil (5-FU) as a positive control.
(§4) Human hepatocellular carcinoma (HepG2) cells and breast adenocarcinoma (MCF7) cells were purchased from the American Type Culture Collection (ATCC, USA). Under 37 °C with 5% CO2 in a humid incubator, cells were propagated using RPMI supplemented with 10% fetal bovine serum (FBS) and 1% v/v penicillin-streptomycin.
(§5) According to Tim Mosmann’s approach, an MTT assay was performed to assess the antiproliferative properties of the compounds. In short, HepG2 or MCF7 cells (0.5 × 105) were grown in flat-bottom 96-well microplates in 180 μL/well RPMI media supplemented with 10% fetal bovine serum, 2μmol/mL L-glutamine, 250 ng/mL fungizone, and 100 units/mL penicillin-streptomycin solutions at 37 °C in a CO2 incubator. Following incubation, 180 μL/well of the new serum-free medium was added to each well after the old media had been withdrawn. After that, cells were exposed to 20 μL of various concentrations of the compounds (50–0.75 μg/mL) and were incubated for 48 h at 37 °C in a humidified 5% CO2 environment. The MTT solution (20 µL/well) was added and incubated for a further 4 h. The plate was agitated at room temperature while acidified isopropanol (160 μL/well) was added to dissolve the formazan crystals. The absorbance at 570 nm was then determined photometrically using the microplate ELISA reader (FLUOstar Omega, BMG, Labtech, Germany). Graph-Pad PRISM version 6 was used to determine the IC50 for each compound.

VEGF in MCF-7 cells = assay: ELISA VEGF level, MCF-7; assay type: cell-based, human; conditions: MCF-7, IC50, 48 h, compared to control and 5-FU treated cells
Description: as §1, §2

MCF-7 cells [7] = assay: Annexin V-FITC/PI flow cytometric apoptosis analysis, MCF-7; assay type: cell-based, human; conditions: MCF-7, IC50 concentration, 48 h
Description: Propidium iodide (PI) and annexin-V-FITC were used in a flow cytometric investigation on HepG2 and MCF-7 cells to better understand the manner of cell death caused by 4e and 4i, respectively. […] Apoptosis evasion is one of the hallmarks of cancer progression because the loss of apoptosis control prolongs cancer cell survival and allows for the accumulation of mutations that can promote angiogenesis and cell proliferation, disrupt differentiation, and increase invasiveness throughout tumor progression, thus one of the key purposes of apoptosis is to prevent cancer.
The apoptotic activity of compounds 4e and 4i was measured using the annexin V fluorescein isothiocyanate (FITC)/propidium iodide (PI) apoptosis detection kit (BioVision, USA, Catalog #: K101-25) following the manufacturer’s instructions. […] Cells were collected by trypsinization, washed twice using PBS and then 1 × 10^5 cells were resuspended in PBS and stained for 15 min at room temperature in the dark with 5 µL Annexin V-FITC and 5 µL PI in 1x binding buffer. Annexin V-FITC binding was analyzed by a BD FACS Calibur flow cytometry (Ex = 488 nm; Em = 530 nm) using a FITC signal detector (FL1) and PI staining by the phycoerythrin emission signal detector (FL2).

[8] = test system: HepG2 human hepatocellular carcinoma cells; assay: MTT cytotoxicity assay, HepG2; assay type: cell-based
Method: as §3, §4, §5

[9] = test system: breast cancer MCF-7 cells; set-up: method as in PMID 31313595; conditions: cited from earlier work

## CC(C)(C)c1nc(NC(=O)CN2CCN(c3ccccc3)CC2)sc1Cc1ccc(Cl)cc1 [VII]
Lung A549 cancer cells
  IC50: 0.2 µM
[1]
  IC50: 4.2 µM

## O=C(CN1CCC(Cc2ccccc2)CC1)Nc1nnc(-c2ccc(Cl)cc2)s1 [Compound 4i, 2-(4-Benzylpiperidin-1-yl)-N-(5-(4-Chlorophenyl)-1,3,4-Thiadiazol-2-yl)Acetamide]
MCF-7 cells [2]
  cell cycle arrest: induced a significant cell growth arrest for MCF-7 cells at the G2/M phase
[3]
  Bax/Bcl-2 ratio: significant increase
MCF-7 cells [4]
  apoptosis and necrosis (AO/EB stain): significantly enhanced apoptosis and necrosis
Caspase 9 in MCF-7 cells
  caspase 9 level: significantly enhanced
[5]
  IC50: 85.29 ± 0.52 µg/mL (≈ 200 µM)
[6]; Homo sapiens, MCF7, MTT, 48 h, means ± SD of three independent experiments
  IC50: 2.32 ± 0.21 µg/mL (≈ 5.43 µM)
[6]; selectivity index, MCF-7 over normal Vero cells
  SI Values MCF-7: 36.70
VEGF in MCF-7 cells
  VEGF level: significantly suppressed
MCF-7 cells [7]
  main mode of cell death (annexin-V/PI): apoptosis
MCF-7 cells [7]; vs untreated cells
  total cell death (annexin-V/PI): induced significant total cell death
[8]; Homo sapiens, HepG2, MTT, 48 h, means ± SD of three independent experiments
  IC50: 6.51 ± 0.03 µg/mL (≈ 15.2 µM)
[8]; selectivity index, HepG2 over normal Vero cells
  SI Values HepG2: 13.10

## CCN1CCN(CC(=O)Nc2nc(C(C)(C)C)c(Cc3ccc(Cl)cc3)s2)CC1 [VI]
[9]
  IC50: 12.5 µM
